US7932421B2, “N-cyclohexyl benzamides and benzeneacetamides as inhibitors of 11-beta-hydroxysteroid dehydrogenases” (Amgen Inc., priority 2006, dated 2011)

Biological target: T1, human 11β-HSD1 (Homo sapiens, UniProt P28845)
T1 construct: made in house
Experiment: hHSD1 SPA: inhibition of 11β-HSD1 (cortisone to cortisol conversion, scintillation proximity assay)
Type: biochemical
Conditions: recombinant human 11β-HSD1, SPA
Procedure: Inhibition of 11β-HSD1 activity was examined by quantitative determination, by an SPA (scintillation proximity assay) system, of the suppressive action on the conversion from cortisone to cortisol using human 11β-HSD1 (hereinafter recombinant 11β-HSD1) expressed using a baculo-virus system as an enzyme source. For the reaction, a reagent was added to a 96-well plate (96-well Opti-plates™-96 (Packard)) to the following final concentration and a volume of 100 μl, and the reaction transpired at room temperature for 90 min. The reaction solution used was 0.1 μg/ml recombinant 11β-HSD1, 500 μM NADPH, 16 nM ^3H cortisone (Amersham Biosciences, […]) dissolved in 0.1% BSA (Sigma)-containing PBS and the test drug was 2 μl of a compound solution (dissolved in DMSO). […] After completion of the reaction, the plate was incubated overnight at room temperature and the radioactivity was measured by Topcount (Packard). […] The inhibition (%) of the test drug was calculated by ((value of control−value of test drug)/(value of control−value of positive control))×100(%). The IC50 value was analyzed using a computer-based curve fitting software.
Recombinant human, mouse and rat 11β-HSD1 were expressed in baculovirus expression system, isolated by affinity purification and used as the enzyme sources for cortisone to cortisol conversion in vitro. ^3H-Cortisone (Amersham Bioscience, […]. 49 Ci/mmol) was used as the substrate, and a monoclonal anti-cortisol antibody and the scintillation proximity assay (SPA) system were used to detect the product of the 11β-HSD1-catalyzed reaction, ^3H-cortisol. Reactions took place at room temperature for 90 min. in 96-well Opti-plates™-96 (Packard) in 100 μL volume with 2 μL test compounds or control in DMSO, 0.1 μg/mL 11β-HSD1 protein, 500 μM NADPH and 16 nM radioactive cortisone, in PBS buffer supplemented with 0.1% BSA (Sigma).
Plates were incubated at room temperature overnight before being read on a Topcount (Packard). The point of 50% inhibition of 11β-HSD1 enzyme activity (IC50) was determined by computer-based curve fitting.

T1 sequence (P28845 whole entry): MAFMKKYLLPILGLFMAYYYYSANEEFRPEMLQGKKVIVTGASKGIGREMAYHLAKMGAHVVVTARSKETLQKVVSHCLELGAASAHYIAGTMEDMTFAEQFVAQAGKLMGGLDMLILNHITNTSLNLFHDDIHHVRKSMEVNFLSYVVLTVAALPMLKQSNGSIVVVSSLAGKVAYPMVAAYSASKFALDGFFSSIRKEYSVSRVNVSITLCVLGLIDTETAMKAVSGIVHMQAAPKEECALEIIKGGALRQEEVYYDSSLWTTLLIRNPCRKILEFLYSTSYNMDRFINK

Compound: Cc1ccc(C(=O)N(C2CC2)[C@H]2CC[C@H](CCO)CC2)c(F)c1 [Compound 1, N-cyclopropyl-2-fluoro-N-(trans-4-(2-hydroxyethyl)cyclohexyl)-4-methylbenzamide]
- IC50: 1.94 nM

Compound: Cc1ccc(C(=O)N(C2CC2)[C@H]2CC[C@H](CC(C)(C)O)CC2)c(F)c1 [Compound 2, N-cyclopropyl-2-fluoro-N-(trans-4-(2-hydroxy-2-methylpropyl)cyclohexyl)-4-methylbenzamide]
- IC50: 6.89 nM

Compound: O=C(c1ccccc1F)N(C1CC1)[C@H]1CC[C@H](CCO)CC1 [Compound 3, N-Cyclopropyl-2-fluoro-N-(trans-4-(2-hydroxyethyl)cyclohexyl)benzamide]
- IC50: 3.95 nM

Compound: O=C(c1cccc(F)c1)N(C1CC1)[C@H]1CC[C@H](CCO)CC1 [Compound 4, N-Cyclopropyl-3-fluoro-N-(trans-4-(2-hydroxyethyl)cyclohexyl)benzamide]
- IC50: 40.5 nM

Compound: O=C(c1ccc(F)cc1)N(C1CC1)[C@H]1CC[C@H](CCO)CC1 [Compound 5, N-Cyclopropyl-4-fluoro-N-(trans-4-(2-hydroxyethyl)cyclohexyl)benzamide]
- IC50: 21.9 nM

Compound: O=C(c1ccc(Cl)cc1)N(C1CC1)[C@H]1CC[C@H](CCO)CC1 [Compound 6, 4-Chloro-N-cyclopropyl-N-(trans-4-(2-hydroxyethyl)cyclohexyl)benzamide]
- IC50: 6.9 nM

Compound: O=C(c1cccc(F)c1F)N(C1CC1)[C@H]1CC[C@H](CCO)CC1 [Compound 7, N-Cyclopropyl-2,3-difluoro-N-(trans-4-(2-hydroxyethyl)cyclohexyl)benzamide]
- IC50: 30.8 nM

Compound: O=C(c1ccc(Br)cc1F)N(C1CC1)[C@H]1CC[C@H](CCO)CC1 [Compound 8, 4-Bromo-N-cyclopropyl-2-fluoro-N-(trans-4-(2-hydroxyethyl)cyclohexyl)benzamide]
- IC50: 1.06 nM

Compound: COc1ccc(C(=O)N(C2CC2)[C@H]2CC[C@H](CCO)CC2)cc1 [Compound 9]
- IC50: 6.35 nM

Compound: CC(C)c1ccc(C(=O)N(C2CC2)[C@H]2CC[C@H](CCO)CC2)cc1 [Compound 11, N-Cyclopropyl-4-isopropyl-N-(trans-4-(2-hydroxyethyl)cyclohexyl)benzamide]
- IC50: 0.94 nM

Compound: O=C(c1ccccc1)N(C1CC1)[C@H]1CC[C@H](CCO)CC1 [Compound 13, N-Cyclopropyl-N-(trans-4-(2-hydroxyethyl)cyclohexyl)benzamide]
- IC50: 18.3 nM

Compound: O=C(c1ccccc1F)N(C1CC1)[C@H]1CC[C@](CCO)(c2ccccn2)CC1 [Compound 14]
- IC50: 20.9 nM

Compound: O=C(c1cccc(F)c1)N(C1CC1)[C@H]1CC[C@](CCO)(c2ccccn2)CC1 [Compound 15]
- IC50: 45.2 nM

Compound: O=C(c1ccc(F)cc1)N(C1CC1)[C@H]1CC[C@](CCO)(c2ccccn2)CC1 [Compound 16]
- IC50: > 100 nM

Compound: O=C(c1ccc(Cl)cc1)N(C1CC1)[C@H]1CC[C@](CCO)(c2ccccn2)CC1 [Compound 19]
- IC50: 23 nM

Compound: COc1cccc(C(=O)N(C2CC2)[C@H]2CC[C@](CCO)(c3ccccn3)CC2)c1 [Compound 23]
- IC50: 61.4 nM

Compound: COc1ccc(C(=O)N(C2CC2)[C@H]2CC[C@](CCO)(c3ccccn3)CC2)cc1 [Compound 24]
- IC50: 59.4 nM

Compound: COc1ccc(C(=O)N(C2CC2)[C@H]2CC[C@](CCO)(c3ccccn3)CC2)c(F)c1 [Compound 25]
- IC50: 21.7 nM

Compound: Cc1ccc(C(=O)N(C2CC2)[C@H]2CC[C@](CCO)(c3ccccn3)CC2)cc1 [Compound 26]
- IC50: 11.4 nM

Compound: CN(C)C(=O)c1ccc(C(=O)N(C2CC2)[C@H]2CC[C@](CCO)(c3ccccn3)CC2)cc1 [Compound 27]
- IC50: > 100 nM

Compound: CC(C)c1ccc(C(=O)N(C2CC2)[C@H]2CC[C@](CCO)(c3ccccn3)CC2)cc1 [Compound 28]
- IC50: 7.2 nM

Compound: CC(C)(C)c1ccc(C(=O)N(C2CC2)[C@H]2CC[C@](CCO)(c3ccccn3)CC2)cc1 [Compound 29]
- IC50: 12.1 nM

Compound: O=C(c1ccc(C(F)(F)F)cc1)N(C1CC1)[C@H]1CC[C@](CCO)(c2ccccn2)CC1 [Compound 31]
- IC50: 54.3 nM

Compound: CC(C(=O)N(C1CC1)[C@H]1CC[C@H](CCO)CC1)c1ccccc1 (stereo partly drawn) [Compound 32, N-Cyclopropyl-N-(trans-4-(2-hydroxyethyl)cyclohexyl)-2-phenylpropionamide]
- IC50: 52.1 nM
